# Experimental data reported in US9809578B2, “Pyrazolyl urea, thiourea, guanidine and cyanoguanidine compounds as trkA kinase inhibitors” (Array BioPharma Inc., priority 2012, dated 2017).
# Tests used:
# PKCiota = molecular target: T1, PKCiota (Homo sapiens, UniProt P41743); test: KinaseProfiler PKCiota; assay type: biochemical; details: 10 μM, ATP near Km
# T1 construct: purchased Millipore, Inc. (KinaseProfiler service)
# Source text: (§1) The compound was run in duplicate at a concentration of ATP near the Km for each individual kinase according to Millipore's specifications.
# CAMK2b = molecular target: T2, CAMK2b (Homo sapiens, UniProt Q13554); test: KinaseProfiler CAMK2b; assay type: biochemical; details: 10 μM, ATP near Km
# T2 construct: purchased Millipore (KinaseProfiler service)
# Source text: as §1
# JAK2 = molecular target: T3, JAK2 (Homo sapiens, UniProt O60674); test: KinaseProfiler JAK2; assay type: biochemical; details: 10 μM, ATP near Km
# T3 construct: purchased Millipore, Inc. (KinaseProfiler service)
# Source text: as §1
# NEK6 = molecular target: T4, NEK6 (Homo sapiens, UniProt Q9HC98); test: KinaseProfiler NEK6; assay type: biochemical; details: 10 μM, ATP near Km
# T4 construct: purchased Millipore, Inc. (KinaseProfiler service)
# Source text: as §1
# EphB1 = molecular target: T5, EphB1 (Homo sapiens, UniProt P54762); test: KinaseProfiler EphB1; assay type: biochemical; details: 10 μM, ATP near Km
# T5 construct: purchased Millipore, Inc. (KinaseProfiler service)
# Source text: as §1
# MEK1 = molecular target: T6, MEK1 (Homo sapiens, UniProt Q02750); test: KinaseProfiler MEK1; assay type: biochemical; details: 10 μM, ATP near Km
# T6 construct: purchased Millipore, Inc. (KinaseProfiler service)
# Source text: as §1
# CDK7/cyclinH/MAT1 = molecular target: T7, CDK7/cyclinH/MAT1 (Homo sapiens, UniProt P50613); test: KinaseProfiler CDK7/cyclinH/MAT1; assay type: biochemical; details: 10 μM, ATP near Km
# T7 construct: purchased Millipore, Inc. (KinaseProfiler service)
# Source text: as §1
# CDK1/cyclinB = molecular target: T8, CDK1/cyclinB (Homo sapiens, UniProt P06493); test: KinaseProfiler CDK1/cyclinB; assay type: biochemical; details: 10 μM, ATP near Km
# T8 construct: purchased Millipore (KinaseProfiler service)
# Source text: as §1
# TSSK1 = molecular target: T9, TSSK1 (Homo sapiens, UniProt Q9BXA7); test: KinaseProfiler TSSK1; assay type: biochemical; details: 10 μM, ATP near Km
# T9 construct: purchased Millipore, Inc. (KinaseProfiler service)
# Source text: as §1
# KIT = molecular target: T10, KIT (Homo sapiens, UniProt P10721); test: KinaseProfiler KIT; assay type: biochemical; details: 10 μM, ATP near Km
# T10 construct: purchased Millipore, Inc. (KinaseProfiler service)
# Source text: as §1
# BLK_m = molecular target: T11, BLK_m (Mus musculus, UniProt P16277); test: KinaseProfiler BLK_m; assay type: biochemical; details: 10 μM, ATP near Km
# T11 construct: purchased Millipore (KinaseProfiler service)
# Source text: as §1
# TAO3 = molecular target: T12, TAO3 (Homo sapiens, UniProt Q9H2K8); test: KinaseProfiler TAO3; assay type: biochemical; details: 10 μM, ATP near Km
# T12 construct: purchased Millipore, Inc. (KinaseProfiler service)
# Source text: as §1
# MARK2 = molecular target: T13, MARK2 (Homo sapiens, UniProt Q7KZI7); test: KinaseProfiler MARK2; assay type: biochemical; details: 10 μM, ATP near Km
# T13 construct: purchased Millipore, Inc. (KinaseProfiler service)
# Source text: as §1
# Mer = molecular target: T14, Mer (Homo sapiens, UniProt Q12866); test: KinaseProfiler Mer; assay type: biochemical; details: 10 μM, ATP near Km
# T14 construct: purchased Millipore, Inc. (KinaseProfiler service)
# Source text: as §1
# GRK6 = molecular target: T15, GRK6 (Homo sapiens, UniProt P43250); test: KinaseProfiler GRK6; assay type: biochemical; details: 10 μM, ATP near Km
# T15 construct: purchased Millipore, Inc. (KinaseProfiler service)
# Source text: as §1
# RIPK2 = molecular target: T16, RIPK2 (Homo sapiens, UniProt O43353); test: KinaseProfiler RIPK2; assay type: biochemical; details: 10 μM, ATP near Km
# T16 construct: purchased Millipore, Inc. (KinaseProfiler service)
# Source text: as §1
# TBK1 = molecular target: T17, TBK1 (Homo sapiens, UniProt Q9UHD2); test: KinaseProfiler TBK1; assay type: biochemical; details: 10 μM, ATP near Km
# T17 construct: purchased Millipore, Inc. (KinaseProfiler service)
# Source text: as §1
# CLK3 = molecular target: T18, CLK3 (Homo sapiens, UniProt P49761); test: KinaseProfiler CLK3; assay type: biochemical; details: 10 μM, ATP near Km
# T18 construct: purchased Millipore, Inc. (KinaseProfiler service)
# Source text: as §1
# Abl-P = molecular target: T19, Abl-P (Homo sapiens, UniProt P00519); test: KinaseProfiler Abl-P; assay type: biochemical; details: 10 μM, ATP near Km
# T19 construct: purchased Millipore (KinaseProfiler service)
# Source text: as §1
# Ron = molecular target: T20, Ron (Homo sapiens, UniProt Q04912); test: KinaseProfiler Ron; assay type: biochemical; details: 10 μM, ATP near Km
# T20 construct: purchased Millipore, Inc. (KinaseProfiler service)
# Source text: as §1
# MSK1 = molecular target: T21, MSK1 (Homo sapiens, UniProt O75582); test: KinaseProfiler MSK1; assay type: biochemical; details: 10 μM, ATP near Km
# T21 construct: purchased Millipore, Inc. (KinaseProfiler service)
# Source text: as §1
# Rse = molecular target: T22, Rse (Homo sapiens, UniProt Q06418); test: KinaseProfiler Rse; assay type: biochemical; details: 10 μM, ATP near Km
# T22 construct: purchased Millipore, Inc. (KinaseProfiler service)
# Source text: as §1
# [1] = molecular target: T23, His-tagged recombinant human TrkA (Homo sapiens, UniProt P04629); test: TrkA LanthaScreen Eu Kinase Binding Assay
# T23 construct: 6HIS tagged cytoplasmic domain from Invitrogen, Cat. No. PV3144; purchased Invitrogen PV3144
# Description: TrkA binding activity was determined in a TrkA LanthaScreen™ Eu Kinase Binding Assay. […] Three fold serial dilutions of compounds of the invention in DMSO were added to a final percentage of 2% DMSO. […] The percent of control was calculated using a ratiometric emission factor. The IC50 values were determined by fitting a four parameter model to the percent of control data.
# MKK7beta = molecular target: T24, MKK7beta (Homo sapiens, UniProt O14733); test: KinaseProfiler MKK7beta; assay type: biochemical; details: 10 μM, ATP near Km
# T24 construct: purchased Millipore, Inc. (KinaseProfiler service)
# Source text: as §1
# CAMK2d = molecular target: T25, CAMK2d (Homo sapiens, UniProt Q13557); test: KinaseProfiler CAMK2d; assay type: biochemical; details: 10 μM, ATP near Km
# T25 construct: purchased Millipore (KinaseProfiler service)
# Source text: as §1
# HIPK3 = molecular target: T26, HIPK3 (Homo sapiens, UniProt Q9H422); test: KinaseProfiler HIPK3; assay type: biochemical; details: 10 μM, ATP near Km
# T26 construct: purchased Millipore, Inc. (KinaseProfiler service)
# Source text: as §1
# CLK2 = molecular target: T27, CLK2 (Homo sapiens, UniProt P49760); test: KinaseProfiler CLK2; assay type: biochemical; details: 10 μM, ATP near Km
# T27 construct: purchased Millipore, Inc. (KinaseProfiler service)
# Source text: as §1
# DDR2 = molecular target: T28, DDR2 (Homo sapiens, UniProt Q16832); test: KinaseProfiler DDR2; assay type: biochemical; details: 10 μM, ATP near Km
# T28 construct: purchased Millipore, Inc. (KinaseProfiler service)
# Source text: as §1
# MRCKbeta = molecular target: T29, MRCKbeta (Homo sapiens, UniProt Q9Y5S2); test: KinaseProfiler MRCKbeta; assay type: biochemical; details: 10 μM, ATP near Km
# T29 construct: purchased Millipore, Inc. (KinaseProfiler service)
# Source text: as §1
# Fes = molecular target: T30, Fes (Homo sapiens, UniProt P07332); test: KinaseProfiler Fes; assay type: biochemical; details: 10 μM, ATP near Km
# T30 construct: purchased Millipore, Inc. (KinaseProfiler service)
# Source text: as §1
# PrKX = molecular target: T31, PrKX (Homo sapiens, UniProt P51817); test: KinaseProfiler PrKX; assay type: biochemical; details: 10 μM, ATP near Km
# T31 construct: purchased Millipore, Inc. (KinaseProfiler service)
# Source text: as §1
# CDK5/p25 = molecular target: T32, CDK5/p25 (Homo sapiens, UniProt Q00535); test: KinaseProfiler CDK5/p25; assay type: biochemical; details: 10 μM, ATP near Km
# T32 construct: purchased Millipore, Inc. (KinaseProfiler service)
# Source text: as §1
# p38beta = molecular target: T33, p38beta (Homo sapiens, UniProt Q15759); test: KinaseProfiler p38beta; assay type: biochemical; details: 10 μM, ATP near Km
# T33 construct: purchased Millipore, Inc. (KinaseProfiler service)
# Source text: as §1
# PKD1 = molecular target: T34, PKD1 (Homo sapiens, UniProt Q15139); test: KinaseProfiler PKD1; assay type: biochemical; details: 10 μM, ATP near Km
# T34 construct: purchased Millipore, Inc. (KinaseProfiler service)
# Source text: as §1
# Rsk4 = molecular target: T35, Rsk4 (Homo sapiens, UniProt Q9UK32); test: KinaseProfiler Rsk4; assay type: biochemical; details: 10 μM, ATP near Km
# T35 construct: purchased Millipore, Inc. (KinaseProfiler service)
# Source text: as §1
# DAPK1 = molecular target: T36, DAPK1 (Homo sapiens, UniProt P53355); test: KinaseProfiler DAPK1; assay type: biochemical; details: 10 μM, ATP near Km
# T36 construct: purchased Millipore, Inc. (KinaseProfiler service)
# Source text: as §1
# ROCK-I = molecular target: T37, ROCK-I (Homo sapiens, UniProt Q13464); test: KinaseProfiler ROCK-I; assay type: biochemical; details: 10 μM, ATP near Km
# T37 construct: purchased Millipore, Inc. (KinaseProfiler service)
# Source text: as §1
# STK33 = molecular target: T38, STK33 (Homo sapiens, UniProt Q9BYT3); test: KinaseProfiler STK33; assay type: biochemical; details: 10 μM, ATP near Km
# T38 construct: purchased Millipore, Inc. (KinaseProfiler service)
# Source text: as §1
# MuSK = molecular target: T39, MuSK (Homo sapiens, UniProt O15146); test: KinaseProfiler MuSK; assay type: biochemical; details: 10 μM, ATP near Km
# T39 construct: purchased Millipore, Inc. (KinaseProfiler service)
# Source text: as §1
# CK1delta = molecular target: T40, CK1delta (Homo sapiens, UniProt P48730); test: KinaseProfiler CK1delta; assay type: biochemical; details: 10 μM, ATP near Km
# T40 construct: purchased Millipore, Inc. (KinaseProfiler service)
# Source text: as §1
# T13 sequence (Q7KZI7 whole entry): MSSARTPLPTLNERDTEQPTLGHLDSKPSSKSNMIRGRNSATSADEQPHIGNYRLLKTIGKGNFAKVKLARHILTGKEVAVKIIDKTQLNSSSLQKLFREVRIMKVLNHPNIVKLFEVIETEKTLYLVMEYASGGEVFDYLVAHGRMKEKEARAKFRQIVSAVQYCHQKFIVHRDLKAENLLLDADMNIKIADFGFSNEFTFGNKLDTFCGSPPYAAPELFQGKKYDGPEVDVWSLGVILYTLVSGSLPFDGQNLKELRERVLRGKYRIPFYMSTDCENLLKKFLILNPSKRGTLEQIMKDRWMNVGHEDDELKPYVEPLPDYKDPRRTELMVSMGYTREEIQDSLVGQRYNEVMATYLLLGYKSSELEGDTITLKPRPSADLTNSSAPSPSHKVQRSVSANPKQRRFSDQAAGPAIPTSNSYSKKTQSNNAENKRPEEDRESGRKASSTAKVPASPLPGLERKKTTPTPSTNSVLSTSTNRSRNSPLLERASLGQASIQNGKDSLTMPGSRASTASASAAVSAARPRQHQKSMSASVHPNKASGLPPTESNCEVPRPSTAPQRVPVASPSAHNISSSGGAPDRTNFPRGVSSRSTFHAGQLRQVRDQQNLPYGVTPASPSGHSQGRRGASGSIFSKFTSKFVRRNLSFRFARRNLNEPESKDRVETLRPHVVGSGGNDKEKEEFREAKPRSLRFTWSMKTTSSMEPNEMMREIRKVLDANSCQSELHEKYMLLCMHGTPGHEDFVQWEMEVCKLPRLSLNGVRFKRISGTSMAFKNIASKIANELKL
# T24 sequence (O14733 whole entry): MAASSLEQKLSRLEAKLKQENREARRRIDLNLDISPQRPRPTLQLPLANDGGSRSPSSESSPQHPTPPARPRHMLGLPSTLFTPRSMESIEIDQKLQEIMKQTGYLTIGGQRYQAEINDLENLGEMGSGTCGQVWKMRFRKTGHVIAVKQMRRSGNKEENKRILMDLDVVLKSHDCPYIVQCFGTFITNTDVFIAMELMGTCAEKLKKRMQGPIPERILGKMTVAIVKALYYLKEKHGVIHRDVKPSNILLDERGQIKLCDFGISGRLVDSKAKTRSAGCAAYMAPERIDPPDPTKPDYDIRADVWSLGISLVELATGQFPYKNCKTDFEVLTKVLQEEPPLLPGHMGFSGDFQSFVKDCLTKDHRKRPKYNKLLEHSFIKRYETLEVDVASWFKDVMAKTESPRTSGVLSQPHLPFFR
# T18 sequence (P49761 whole entry): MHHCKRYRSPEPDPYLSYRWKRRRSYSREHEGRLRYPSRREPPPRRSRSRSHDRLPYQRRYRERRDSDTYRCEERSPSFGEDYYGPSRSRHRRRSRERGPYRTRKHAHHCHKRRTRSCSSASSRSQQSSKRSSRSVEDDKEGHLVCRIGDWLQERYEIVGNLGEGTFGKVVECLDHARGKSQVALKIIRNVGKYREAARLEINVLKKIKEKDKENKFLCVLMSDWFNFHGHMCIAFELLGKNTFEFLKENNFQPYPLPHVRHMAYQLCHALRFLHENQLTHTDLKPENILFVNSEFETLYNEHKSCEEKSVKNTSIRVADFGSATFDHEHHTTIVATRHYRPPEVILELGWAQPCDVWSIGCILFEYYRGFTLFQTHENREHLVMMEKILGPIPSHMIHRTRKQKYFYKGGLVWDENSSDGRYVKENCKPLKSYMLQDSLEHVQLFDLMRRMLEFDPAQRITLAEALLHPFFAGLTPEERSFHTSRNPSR
# T17 sequence (Q9UHD2 whole entry): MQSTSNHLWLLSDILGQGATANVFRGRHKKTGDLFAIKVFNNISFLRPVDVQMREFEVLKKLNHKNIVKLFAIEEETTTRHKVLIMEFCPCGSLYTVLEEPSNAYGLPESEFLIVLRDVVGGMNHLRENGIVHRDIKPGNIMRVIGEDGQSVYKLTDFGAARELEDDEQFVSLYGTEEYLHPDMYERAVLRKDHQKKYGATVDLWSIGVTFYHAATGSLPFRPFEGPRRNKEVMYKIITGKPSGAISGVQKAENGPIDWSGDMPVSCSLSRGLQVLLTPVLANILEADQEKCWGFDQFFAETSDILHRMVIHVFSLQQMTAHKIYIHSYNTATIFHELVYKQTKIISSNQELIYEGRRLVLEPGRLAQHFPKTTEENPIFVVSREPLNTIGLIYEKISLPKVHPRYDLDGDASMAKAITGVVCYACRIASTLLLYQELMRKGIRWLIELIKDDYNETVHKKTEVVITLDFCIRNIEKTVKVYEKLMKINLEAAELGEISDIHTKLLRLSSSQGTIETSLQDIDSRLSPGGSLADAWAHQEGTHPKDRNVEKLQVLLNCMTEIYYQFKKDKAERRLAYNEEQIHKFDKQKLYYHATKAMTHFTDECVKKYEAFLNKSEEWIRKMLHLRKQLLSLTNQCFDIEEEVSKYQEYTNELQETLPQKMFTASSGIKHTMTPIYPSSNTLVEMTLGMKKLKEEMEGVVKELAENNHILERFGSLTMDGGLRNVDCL
# T6 sequence (Q02750 whole entry): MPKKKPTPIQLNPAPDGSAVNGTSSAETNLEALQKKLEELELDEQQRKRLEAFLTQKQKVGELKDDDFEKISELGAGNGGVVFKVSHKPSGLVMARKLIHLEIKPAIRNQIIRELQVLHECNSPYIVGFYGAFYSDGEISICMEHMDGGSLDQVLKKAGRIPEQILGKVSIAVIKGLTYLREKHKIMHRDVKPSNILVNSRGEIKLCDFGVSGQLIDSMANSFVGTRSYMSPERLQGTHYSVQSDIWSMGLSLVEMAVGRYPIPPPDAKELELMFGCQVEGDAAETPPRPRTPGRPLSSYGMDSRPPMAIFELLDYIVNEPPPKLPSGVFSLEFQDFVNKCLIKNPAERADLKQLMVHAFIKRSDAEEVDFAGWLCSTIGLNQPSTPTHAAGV
# T5 sequence (P54762 18-984): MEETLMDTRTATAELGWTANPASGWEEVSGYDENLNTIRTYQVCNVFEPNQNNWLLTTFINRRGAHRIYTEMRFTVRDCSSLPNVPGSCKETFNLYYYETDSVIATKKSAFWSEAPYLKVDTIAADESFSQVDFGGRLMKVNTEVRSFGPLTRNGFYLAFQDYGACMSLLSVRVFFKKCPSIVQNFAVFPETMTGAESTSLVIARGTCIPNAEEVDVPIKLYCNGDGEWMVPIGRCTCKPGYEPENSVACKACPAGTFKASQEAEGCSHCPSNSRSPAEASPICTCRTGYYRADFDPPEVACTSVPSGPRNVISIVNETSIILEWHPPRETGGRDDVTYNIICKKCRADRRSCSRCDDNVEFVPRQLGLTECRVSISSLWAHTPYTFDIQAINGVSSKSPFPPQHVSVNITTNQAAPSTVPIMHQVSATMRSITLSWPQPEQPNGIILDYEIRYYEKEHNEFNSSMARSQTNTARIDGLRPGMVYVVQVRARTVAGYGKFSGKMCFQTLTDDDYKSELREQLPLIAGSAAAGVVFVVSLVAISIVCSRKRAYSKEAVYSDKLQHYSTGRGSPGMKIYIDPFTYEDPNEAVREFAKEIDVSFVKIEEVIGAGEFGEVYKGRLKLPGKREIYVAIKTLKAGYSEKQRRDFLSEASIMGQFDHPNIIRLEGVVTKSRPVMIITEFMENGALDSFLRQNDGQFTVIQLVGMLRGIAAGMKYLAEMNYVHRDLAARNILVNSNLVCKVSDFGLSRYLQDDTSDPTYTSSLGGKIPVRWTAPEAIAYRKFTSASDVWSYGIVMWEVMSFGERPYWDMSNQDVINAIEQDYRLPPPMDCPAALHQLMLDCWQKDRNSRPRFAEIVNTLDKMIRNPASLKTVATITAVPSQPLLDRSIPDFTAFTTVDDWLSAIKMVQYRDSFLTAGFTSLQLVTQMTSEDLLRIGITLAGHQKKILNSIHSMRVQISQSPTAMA
# T38 sequence (Q9BYT3 whole entry): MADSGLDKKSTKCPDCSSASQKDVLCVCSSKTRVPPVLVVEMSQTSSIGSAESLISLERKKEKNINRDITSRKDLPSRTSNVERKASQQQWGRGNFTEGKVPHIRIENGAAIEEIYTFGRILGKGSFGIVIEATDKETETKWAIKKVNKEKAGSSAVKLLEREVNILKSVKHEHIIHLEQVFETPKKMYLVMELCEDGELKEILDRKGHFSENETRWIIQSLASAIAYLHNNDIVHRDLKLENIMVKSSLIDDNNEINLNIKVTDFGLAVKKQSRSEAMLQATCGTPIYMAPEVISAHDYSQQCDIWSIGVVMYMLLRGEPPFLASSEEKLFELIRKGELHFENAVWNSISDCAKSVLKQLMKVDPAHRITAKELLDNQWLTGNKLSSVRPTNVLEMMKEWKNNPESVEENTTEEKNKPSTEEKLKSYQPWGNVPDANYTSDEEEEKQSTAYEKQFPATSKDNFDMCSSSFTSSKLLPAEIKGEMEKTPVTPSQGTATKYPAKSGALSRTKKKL
# T32 sequence (Q00535 whole entry): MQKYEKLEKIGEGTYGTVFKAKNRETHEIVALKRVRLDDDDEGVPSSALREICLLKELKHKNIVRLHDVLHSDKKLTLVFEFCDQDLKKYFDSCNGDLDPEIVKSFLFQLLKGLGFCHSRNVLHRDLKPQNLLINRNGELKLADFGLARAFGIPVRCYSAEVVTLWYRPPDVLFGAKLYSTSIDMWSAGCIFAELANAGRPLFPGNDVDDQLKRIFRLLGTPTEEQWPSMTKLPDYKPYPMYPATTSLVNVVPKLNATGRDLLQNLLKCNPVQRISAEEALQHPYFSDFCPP
# T32 sequence (Q15078 99-307 partner limits assumed): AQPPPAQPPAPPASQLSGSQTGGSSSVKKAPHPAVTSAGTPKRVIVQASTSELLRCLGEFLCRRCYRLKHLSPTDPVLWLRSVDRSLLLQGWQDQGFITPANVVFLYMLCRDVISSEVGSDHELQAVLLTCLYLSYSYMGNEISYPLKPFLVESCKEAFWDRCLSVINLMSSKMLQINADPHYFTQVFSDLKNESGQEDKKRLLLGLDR
smiles,measurement,setting,value
"Cc1c(-c2cnn(C)c2)nn(-c2ccccc2)c1NC(=O)Nc1cc(C(F)(F)F)nn1-c1ccccc1 [Example 3, 1-(1′,4-dimethyl-1-phenyl-1H,1′H-[3,4′-bipyrazol]-5-yl)-3-(1-phenyl-3-(trifluoromethyl)-1H-pyrazol-5-yl)urea]",Avg POC,PKCiota,69.5 POC
same,Avg POC,CAMK2b,96.5 POC
same,Avg POC,JAK2,136.5 POC
same,Avg POC,NEK6,125 POC
same,Avg POC,EphB1,122 POC
same,Avg POC,MEK1,111 POC
same,Avg POC,CDK7/cyclinH/MAT1,120.5 POC
same,Avg POC,CDK1/cyclinB,102.5 POC
same,Avg POC,TSSK1,83.5 POC
same,Avg POC,KIT,86.5 POC
same,Avg POC,BLK_m,108.5 POC
same,Avg POC,TAO3,94 POC
same,Avg POC,MARK2,106.5 POC
same,Avg POC,Mer,104.5 POC
same,Avg POC,GRK6,105 POC
same,Avg POC,RIPK2,96.5 POC
same,Avg POC,TBK1,103 POC
same,Avg POC,CLK3,104 POC
same,Avg POC,Abl-P,154.5 POC
same,Avg POC,Ron,90.5 POC
same,Avg POC,MSK1,152.5 POC
same,Avg POC,Rse,106.5 POC
same,IC50,[1],< 100 nM
same,Avg POC,MKK7beta,143.5 POC
same,Avg POC,CAMK2d,131 POC
same,Avg POC,HIPK3,109.5 POC
same,Avg POC,CLK2,135 POC
same,Avg POC,DDR2,98 POC
same,Avg POC,MRCKbeta,121.5 POC
same,Avg POC,Fes,123 POC
same,Avg POC,PrKX,188 POC
same,Avg POC,CDK5/p25,108.5 POC
same,Avg POC,p38beta,102 POC
same,Avg POC,PKD1,100.5 POC
same,Avg POC,Rsk4,99 POC
same,Avg POC,DAPK1,137.5 POC
same,Avg POC,ROCK-I,115 POC
same,Avg POC,STK33,107.5 POC
same,Avg POC,MuSK,82.5 POC
same,Avg POC,CK1delta,141 POC
